The source made the active and inactive calls. How the calls were made is not given here.
System: rodent carcinogenicity bioassays, tumor incidence
Test: CCRIS carcinogenicity studies
Conditions: Dose: 0, Dose: 0
In short: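 Archive of carcinogenicity, mutagenicity, tumor promotion and tumor inhibition results drawn from journals, NCI reports and other sources, expert-reviewed; covers 1985-2011 and is no longer updated.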

CCN(CC)CC#CC(C)(C)OC(=O)C(O)(c1ccccc1)C1CCCCC1 (centres undefined)
carcinogen call (Species: MOUSE, Strain/Sex: B6C3F1/FEMALE, Route: ORAL, 30, 100, 300 MG/KG/D IN DIET FOR 78 WK (STUDY DURATION: 78 WK), 30, 100, 300 MG/KG/D IN DIET FOR 78 WK (STUDY DURATION: 78 WK)): inactive; negative | carcinogen call (Species: MOUSE, Strain/Sex: B6C3F1/MALE, Route: ORAL, 30, 100, 300 MG/KG/D IN DIET FOR 78 WK (STUDY DURATION: 78 WK), 30, 100, 300 MG/KG/D IN DIET FOR 78 WK (STUDY DURATION: 78 WK)): inactive; negative | carcinogen call (Species: RAT, Strain/Sex: F344/FEMALE, Route: ORAL, 30, 100 MG/KG/D IN DIET FOR 2 YR (STUDY DURATION: 2 YR), 30, 100 MG/KG/D IN DIET FOR 2 YR (STUDY DURATION: 2 YR)): inactive; negative | carcinogen call (Species: RAT, Strain/Sex: F344/MALE, Route: ORAL, 10, 30, 100 MG/KG/D IN DIET FOR 2 YR (STUDY DURATION: 2 YR), 10, 30, 100 MG/KG/D IN DIET FOR 2 YR (STUDY DURATION: 2 YR)): inactive; negative

ClCOCc1ccc(COCCl)cc1
carcinogen call (Species: MOUSE, Strain/Sex: ICR/HA SWISS/FEMALE, Route: DERMAL, 0.3 MG IN 0.1 ML CYCLOHEXANE 3/WK FOR 502 D (STUDY DURATION: 570 D), Tumor Site: Type of Lesion: SKIN: PAPILLOMA, SKIN: CARCINOMA): active; positive | carcinogen call (Species: MOUSE, Strain/Sex: ICR/HA SWISS/FEMALE, Route: SUBCUTANEOUS, 0.3 MG IN 0.05 ML TRICAPRYLIN 1/WK FOR 569 D (STUDY DURATION: 570 D), Tumor Site: Type of Lesion: INJECTION SITE: SARCOMA): active; positive

CCCCOC(=O)[C@@H](C)Oc1ccc(Oc2ccc(C(F)(F)F)cn2)cc1
carcinogen call (Species: Hamster, Strain/Sex: Syrian golden/Female (51/Group), Route: Oral, 200, 750, 3000 ppm of 91.6% fluazifop-o-butyl (0; 10.6; 40; 158 mg/kg/day) in diet for 81-83 wks, study duration 83 w, 200, 750, 3000 ppm of 91.6% fluazifop-o-butyl (0; 10.6; 40; 158 mg/kg/day) in diet for 81-83 wks, study duration 83 w): inactive; negative | carcinogen call (Species: Hamster, Strain/Sex: Syrian golden/Male (51/Group), Route: Oral, 200, 750, 3000 ppm of 91.6% fluazifop-o-butyl (0; 11.1; 42; 174 mg/kg/day) in diet for 81-83 wks, study duration 83 w, 200, 750, 3000 ppm of 91.6% fluazifop-o-butyl (0; 11.1; 42; 174 mg/kg/day) in diet for 81-83 wks, study duration 83 w): inactive; negative | carcinogen call (Species: Rat, Strain/Sex: Wistar/Female (60/Group), Route: Oral, 2, 10, 80, 250 ppm of 94.8% fluazifop-o-butyl (0; 0.11; 0.53; 4.3; 13.4 mg/kg/day) in diet for 2 yrs, study duration, 2, 10, 80, 250 ppm of 94.8% fluazifop-o-butyl (0; 0.11; 0.53; 4.3; 13.4 mg/kg/day) in diet for 2 yrs, study duration): inactive; negative | carcinogen call (Species: Rat, Strain/Sex: Wistar/Male (60/Group), Route: Oral, 2, 10, 80, 250 ppm of 94.8% fluazifop-o-butyl (0; 0.08; 0.41; 3.3; 10.2 mg/kg/day) in diet for 2 yrs, study duration, 2, 10, 80, 250 ppm of 94.8% fluazifop-o-butyl (0; 0.08; 0.41; 3.3; 10.2 mg/kg/day) in diet for 2 yrs, study duration): inactive; negative

Fc1cccc2ncccc12
carcinogen call (Species: MOUSE, Strain/Sex: CD-1/FEMALE, Route: INTRAPERITONEAL, 1.75 UMOL/MOUSE (TOTAL DOSE) ADMINISTERED DURING DAYS 1, 8, AND 15 OF LIFE (STUDY DURATION: 52 WK)): inactive; negative | carcinogen call (Species: MOUSE, Strain/Sex: CD-1/MALE, Route: INTRAPERITONEAL, 1.75 UMOL/MOUSE (TOTAL DOSE) ADMINISTERED DURING DAYS 1, 8, AND 15 OF LIFE (STUDY DURATION: 52 WK), Tumor Site: Type of Lesion: LIVER: CARCINOMA): active; positive

c1ccc2c(c1)ccc1cc3ccc4ccccc4c3cc12
carcinogen call (Species: MOUSE, Strain/Sex: SWISS/FEMALE, Route: DERMAL, 78 UG IN ACETONE (0.4%) 2/WK FOR 60 WK FOR A TOTAL DOSE OF 0, 9.4 MG (STUDY DURATION: 80 WK), 78 UG IN ACETONE (0.4%) 2/WK FOR 60 WK FOR A TOTAL DOSE OF 0, 9.4 MG (STUDY DURATION: 80 WK), Tumor Site: Type of Lesion: SKIN: CARCINOMA): active; positive

CC1(C)S[C@@H]2[C@H](NC(=O)[C@H](N)c3ccccc3)C(=O)N2[C@H]1C(=O)O
carcinogen call (Species: MOUSE, Strain/Sex: B6C3F1/FEMALE, Route: GAVAGE, 1500, 3000 MG/KG IN CORN OIL 5 D/WK FOR 103-104 WK (STUDY DURATION: 106 WK), 1500, 3000 MG/KG IN CORN OIL 5 D/WK FOR 103-104 WK (STUDY DURATION: 106 WK)): inactive; negative | carcinogen call (Species: MOUSE, Strain/Sex: B6C3F1/FEMALE, Route: GAVAGE, 1500, 3000 MG/KG IN CORN OIL 5 D/WK FOR 103 WK, 1500, 3000 MG/KG IN CORN OIL 5 D/WK FOR 103 WK): inactive; negative | carcinogen call (Species: MOUSE, Strain/Sex: B6C3F1/MALE, Route: GAVAGE, 1500, 3000 MG/KG IN CORN OIL 5 D/WK FOR 103-104 WK (STUDY DURATION: 106 WK), 1500, 3000 MG/KG IN CORN OIL 5 D/WK FOR 103-104 WK (STUDY DURATION: 106 WK)): inactive; negative | carcinogen call (Species: MOUSE, Strain/Sex: B6C3F1/MALE, Route: GAVAGE, 1500, 3000 MG/KG IN CORN OIL 5 D/WK FOR 103 WK, 1500, 3000 MG/KG IN CORN OIL 5 D/WK FOR 103 WK): inactive; negative | carcinogen call (Species: RAT, Strain/Sex: F344/FEMALE, Route: GAVAGE, 750, 1500 MG/KG IN CORN OIL 5 D/WK FOR 103-104 WK (STUDY DURATION: 106 WK), 750, 1500 MG/KG IN CORN OIL 5 D/WK FOR 103-104 WK (STUDY DURATION: 106 WK)): inactive; negative | carcinogen call (Species: RAT, Strain/Sex: F344/FEMALE, Route: GAVAGE, 750, 1500 MG/KG IN CORN OIL 5 D/WK FOR 103 WK, 750, 1500 MG/KG IN CORN OIL 5 D/WK FOR 103 WK): inactive; negative | carcinogen call (Species: RAT, Strain/Sex: F344/MALE, Route: GAVAGE, 750, 1500 MG/KG IN CORN OIL 5 D/WK FOR 103 WK (STUDY DURATION: 105 WK), 750, 1500 MG/KG IN CORN OIL 5 D/WK FOR 103 WK (STUDY DURATION: 105 WK), Tumor Site: Type of Lesion: ADRENAL MEDULLA: PHEOCHROMOCYTOMAS, HEMATOPOIETIC SYSTEM: MONONUCLEAR CELL LEUKEMIA): equivocal

NC(=S)NNC(N)=S
carcinogen call (Species: MOUSE, Strain/Sex: B6C3F1/FEMALE, Route: ORAL, 1.0, 2.0% OF DIET FOR 78 WK (STUDY DURATION: 94 WK), 1.0, 2.0% OF DIET FOR 78 WK (STUDY DURATION: 94 WK), Tumor Site: Type of Lesion: LIVER: HEPATOCELLULAR CARCINOMA): equivocal | carcinogen call (Species: MOUSE, Strain/Sex: B6C3F1/MALE, Route: ORAL, 1.0, 2.0% OF DIET FOR 78 WK (STUDY DURATION: 94 WK), 1.0, 2.0% OF DIET FOR 78 WK (STUDY DURATION: 94 WK)): inactive; negative | carcinogen call (Species: RAT, Strain/Sex: F344/FEMALE, Route: ORAL, 0.6, 1.2% OF DIET FOR 78 WK (STUDY DURATION: 109 WK), 0.6, 1.2% OF DIET FOR 78 WK (STUDY DURATION: 109 WK)): inactive; negative | carcinogen call (Species: RAT, Strain/Sex: F344/MALE, Route: ORAL, 0.6, 1.2% OF DIET OR 78 WK (STUDY DURATION: 109 WK), 0.6, 1.2% OF DIET OR 78 WK (STUDY DURATION: 109 WK)): inactive; negative

— PubChem BioAssay AID1259411 (Chemical Carcinogenesis Research Information System (CCRIS), 2018)
